Reference: PubChem BioAssay (NCI)
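Interpolation was linear, between the two tested concentrations surrounding the appropriate level; five concentrations were tested over 48 hours in 96-well plates. The concentration for 50% growth inhibition is given as GI50. Definition used: TGI = concentration required for complete inhibition of growth.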

Key:
Test in all cases: DTP human tumour cell line panel, 48 h
BT-549 breast = tested on: BT-549 breast
HCC-2998 colon = tested on: HCC-2998 colon
NCI-H23 lung = tested on: NCI-H23 lung
NCI/ADR-RES ovarian = tested on: NCI/ADR-RES ovarian
OVCAR-3 ovarian = tested on: OVCAR-3 ovarian
OVCAR-8 ovarian = tested on: OVCAR-8 ovarian
PC-3 prostate = tested on: PC-3 prostate
SW-620 colon = tested on: SW-620 colon
U251 CNS = tested on: U251 CNS
UO-31 renal = tested on: UO-31 renal

Row | Structure (SMILES) | TGI (BT-549 breast) | TGI (HCC-2998 colon) | TGI (NCI-H23 lung) | TGI (NCI/ADR-RES ovarian) | TGI (OVCAR-3 ovarian) | TGI (OVCAR-8 ovarian) | TGI (PC-3 prostate) | TGI (SW-620 colon) | TGI (U251 CNS) | TGI (UO-31 renal) | GI50 (BT-549 breast) | GI50 (HCC-2998 colon) | GI50 (NCI-H23 lung) | GI50 (NCI/ADR-RES ovarian) | GI50 (OVCAR-3 ovarian) | GI50 (OVCAR-8 ovarian) | GI50 (PC-3 prostate) | GI50 (SW-620 colon) | GI50 (UO-31 renal)
1 | Nc1ccn(C2CCC(COP(=O)(O)OCC(O)COP(=O)(O)OCC3OC(n4cc(F)c(=O)[nH]c4=O)CC3O)O2)c(=O)n1 (centres undefined) | > 100 µM | > 100 µM | > 100 µM | > 100 µM | > 100 µM | > 100 µM | > 100 µM | > 100 µM | > 100 µM | > 100 µM | – | – | – | – | – | – | – | – | –
2 | NC1=Nc2ccccc2Sc2cccc(F)c21 | > 100 µM | > 100 µM | > 100 µM | > 100 µM | > 100 µM | > 100 µM | > 100 µM | > 100 µM | > 100 µM | > 100 µM | – | – | – | – | – | – | – | – | –
3 | Cc1ccnc(Nc2[nH]c(C(=O)c3ccc(Cl)cc3)c(N)c2C(=S)Nc2ccccc2)c1 | 30.5 µM | 29.7 µM | 46.5 µM | 11.1 µM | 93 µM | 34.5 µM | > 100 µM | 69.6 µM | 33.2 µM | 37.2 µM | – | – | – | – | – | – | – | – | –
4 | COC(=O)c1c2c(cc3c1CC1(Cc4ccccc4C1)C3)CCC2 | 95.5 µM | 98.7 µM | > 100 µM | 96.1 µM | 47.6 µM | > 100 µM | 48.1 µM | 39.7 µM | 48.6 µM | > 100 µM | – | – | – | – | – | – | – | – | –
5 | C=C1CCOC2(C(O)C(C)(O)CO)NC(=O)C1(O)NC2=O (centres undefined) | > 100 µM | > 100 µM | > 100 µM | > 100 µM | > 100 µM | > 100 µM | > 100 µM | > 100 µM | > 100 µM | > 100 µM | – | – | – | – | – | – | – | – | –
6 | Cc1nc2ccc(NC3OCC(O)C(O)C3O)cc2c(=O)n1-c1ccccc1 (centres undefined) | > 100 µM | > 100 µM | > 100 µM | > 100 µM | > 100 µM | > 100 µM | > 100 µM | > 100 µM | > 100 µM | > 100 µM | – | – | – | – | – | – | – | – | –
7 | CN(C)CC1CCC/C(=C\c2ccc(OC(=O)/C=C/c3ccc(Cl)cc3)cc2)C1=O (centres undefined) | 14.2 µM | 13.1 µM | 14.1 µM | 23 µM | 12.4 µM | 19.3 µM | 11.7 µM | 6.44 µM | 9.97 µM | 12.8 µM | – | – | – | – | – | – | – | – | –
8 | O=C(NC1C/C(=N/O)c2c(Br)sc(Br)c21)C(F)(F)F (centres undefined) | > 100 µM | > 100 µM | > 100 µM | 88.6 µM | > 100 µM | 63.2 µM | 45.6 µM | > 100 µM | 39.2 µM | 98.5 µM | – | – | – | – | – | – | – | – | –
9 | COc1ccc(Nc2nc(N)c(C(=O)c3ccc(Cl)cc3)s2)cc1 | > 73.6 µM | 3.47 µM | 6.78 µM | 29.7 µM | 0.421 µM | 15 µM | 6.61 µM | > 100 µM | 4.58 µM | 16 µM | – | – | – | – | – | – | – | – | –
10 | CC(=O)NC(C)(C)C1CCC(C)CC1 (centres undefined) | > 100 µM | > 100 µM | > 100 µM | > 100 µM | > 100 µM | > 100 µM | > 100 µM | > 100 µM | > 100 µM | > 100 µM | – | – | – | – | – | – | – | – | –
11 | COC(=O)c1ccccc1C1CN=NC12Cc1ccc3c(c1C2=O)CCC3 (centres undefined) | > 100 µM | > 100 µM | > 100 µM | > 100 µM | > 100 µM | > 100 µM | > 100 µM | > 100 µM | > 100 µM | > 100 µM | – | – | – | – | – | – | – | – | –
12 | CCCCCCCCCCCCOC1C(COCCN2CCCCC2)OC2OC(C)(C)OC21 (centres undefined) | 5.8 µM | 3.01 µM | 6.06 µM | 14.4 µM | 7.25 µM | 3.41 µM | 3.8 µM | 3.23 µM | 3.48 µM | 3.22 µM | – | – | – | – | – | – | – | – | –
13 | COc1ccc2[nH]c3c(c2c1)CC(=O)N1CCC[C@H](C1)CC31OCCCO1 | > 100 µM | > 100 µM | > 100 µM | > 100 µM | > 100 µM | > 100 µM | > 100 µM | > 100 µM | > 100 µM | > 100 µM | – | – | – | – | – | – | – | – | –
14 | COc1ccc2c3/c(=C\c4ccc(N(C)C)cc4)c4ccccc4n3[n+](C)c2c1 | 2.7 µM | 0.31 µM | 0.722 µM | > 55.8 µM | 0.369 µM | 2.33 µM | 1.5 µM | > 100 µM | > 100 µM | 1.66 µM | 0.129 µM | < 0.0378 µM | 0.0639 µM | 4.31 µM | 0.0358 µM | 0.0474 µM | 0.124 µM | 0.0438 µM | 0.484 µM
15 | CN(C)CCCn1c(Cn2nc3ccccc3n2)nc2cc(C(F)(F)F)ccc21 | > 100 µM | 21.2 µM | > 100 µM | > 100 µM | > 100 µM | > 100 µM | > 100 µM | > 100 µM | > 100 µM | 73.2 µM | – | – | – | – | – | – | – | – | –
